Source: patent US20240299348A1, “MODULATORS OF TRPML, THEIR COMPOSITIONS AND METHODS OF USE” (Caraway Therapeutics, Inc., priority 2021, published 2024)
Where two headings read alike, the source gives them in different places.

Key:
hTRPML1 [1] = molecular target: T1, hTRPML1 (Homo sapiens, UniProt Q9GZU1); assay: TRPML1 fluorescent (Fluo-4) assay; format: cell-based; design: Secondary Screening: Fluo-4: hTRPML1: EC50 (M); HEK-293 Trex cells expressing hTRPML1; conditions: activation; HEK-293 Trex cells expressing hTRPML1; read-out: Secondary Screening: Fluo-4: hTRPML1: EC50
T1 sequence (Q9GZU1 whole entry L15A/L16A/L577A/L578A, form open): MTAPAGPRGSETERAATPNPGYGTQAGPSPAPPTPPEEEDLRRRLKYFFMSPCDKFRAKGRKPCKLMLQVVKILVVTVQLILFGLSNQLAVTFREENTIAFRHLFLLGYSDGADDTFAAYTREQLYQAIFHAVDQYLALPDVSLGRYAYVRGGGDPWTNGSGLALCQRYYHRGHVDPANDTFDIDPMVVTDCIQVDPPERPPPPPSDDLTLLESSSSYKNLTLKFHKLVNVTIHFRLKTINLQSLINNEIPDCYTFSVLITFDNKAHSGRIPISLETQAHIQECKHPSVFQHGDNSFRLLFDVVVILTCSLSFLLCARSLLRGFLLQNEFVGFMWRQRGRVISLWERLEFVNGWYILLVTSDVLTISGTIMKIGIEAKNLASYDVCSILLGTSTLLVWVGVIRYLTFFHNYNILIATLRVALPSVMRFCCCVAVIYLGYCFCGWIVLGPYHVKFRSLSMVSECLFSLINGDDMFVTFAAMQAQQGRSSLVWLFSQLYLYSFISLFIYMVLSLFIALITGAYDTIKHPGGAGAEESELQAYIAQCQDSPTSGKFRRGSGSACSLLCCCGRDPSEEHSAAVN
Method: (§1) HEK-293 Trex cells were stably transfected with a construct consisting of the human coding sequence for TRPML1 cloned into the […] plasmid pCDNA5 T/O. Mutations were introduced into the TRPML1 sequence to facilitate expression on the cell surface (Silvia Vergarajauregui, Rosa Puertollano Traffic. 2006 March; 7(3): 337-353). Briefly, the cells are cultured in 150 mm round tissue culture dishes containing 20 mL of media. The day before the assay the cells are rinsed with DPBS—Ca—Mg and then treated briefly with Trypsin-EDTA. The Trypsin-EDTA is diluted with growth media, and cells are counted. 38×10^6 cells are re-plated into 150 mm round tissue culture dishes in media containing 0.5 ug/mL doxycycline to induce expression of hTRPML1.
The day of the experiment cells are lifted from the plates as above and collected by centrifugation. The cells are then suspended in dye loading buffer consisting of Ringer's solution supplemented with 0.1% Pluronic Acid and 1 micromolar Fluo4-AM dye. Cells are loaded for ˜60 minutes in the dark with occasional mixing. The cells are collected by centrifugation, the loading media aspirated, and the cells resuspended in 25 mL Ringer's solution and incubated ˜60 minutes in the dark. The cells are again collected by centrifugation, rinsed in Ringer's Solution and resuspended to 0.2×10^6 cells/mL in modified Ringer's solution containing 10 mM calcium.
Compounds are dissolved to a concentration of 10 millimolar with DMSO. Compound plates are created by dispensing compounds into 384 well black wall clear bottom plates (Greiner 781091). Positive and negative controls are included on each plate. Typically, different amounts of each compound are tested ranging from 100 nanoMoles (20 micromolar final concentration) decreasing in half-log steps to 31 picoMoles (6 nanomolar final concentration). Each concentration is typically tested in triplicate.
(§2) 50 microliters of dye-loaded cells are dispensed into each well of the compound assay plate created above. The fluorescence in each well is then determined with an excitation wavelength of 480 nm and an emission wavelength of 540 nm using either a Molecular Devices SpectraMax multimode plate reader or a Hamamatsu FDSS/uCell plate imager.
(§3) The resulting fluorescence for each well is exported as an ascii file and loaded into our LIMS for analysis. The percent activity of each compound at each concentration is determined by comparison to the positive and negative control wells included in each plate.
(§4) EC50 values were calculated using a non-linear regression of Prism.

hTRPML2 = molecular target: T2, hTRPML2 (Homo sapiens, UniProt Q8IZK6); assay: TRPML2 fluorescent (Fluo-4) assay; format: cell-based
T2 construct: expressed in transfected cells; host or cells: HEK-293 Trex (by analogy, 'performed as above')
T2 sequence (Q8IZK6 1-566): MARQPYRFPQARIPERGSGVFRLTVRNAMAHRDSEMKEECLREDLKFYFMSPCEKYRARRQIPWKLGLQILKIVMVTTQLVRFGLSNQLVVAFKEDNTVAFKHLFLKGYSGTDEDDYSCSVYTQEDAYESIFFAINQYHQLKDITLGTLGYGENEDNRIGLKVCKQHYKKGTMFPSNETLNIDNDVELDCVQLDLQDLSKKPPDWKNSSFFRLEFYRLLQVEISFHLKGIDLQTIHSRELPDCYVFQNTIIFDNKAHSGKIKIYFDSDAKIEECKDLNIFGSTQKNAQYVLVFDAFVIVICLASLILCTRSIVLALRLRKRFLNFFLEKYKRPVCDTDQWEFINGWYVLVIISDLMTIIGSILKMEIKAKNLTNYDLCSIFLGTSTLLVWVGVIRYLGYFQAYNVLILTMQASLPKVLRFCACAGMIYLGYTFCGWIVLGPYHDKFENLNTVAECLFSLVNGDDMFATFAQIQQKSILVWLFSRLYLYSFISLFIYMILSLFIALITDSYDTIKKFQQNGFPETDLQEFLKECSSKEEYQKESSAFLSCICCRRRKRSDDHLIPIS
Method: (§5) Assays for TRPML2 and TRPML3 were performed as above for TRPML1, by substituting the appropriate TRPML2 or TRPML3 subtype for the TRPML1.
as §4

hTRPML3 = molecular target: T3, hTRPML3 (Homo sapiens, UniProt Q8TDD5); assay: TRPML3 fluorescent (Fluo-4) assay; format: cell-based
T3 construct: expressed in transfected cells; host or cells: HEK-293 Trex (by analogy, 'performed as above')
T3 sequence (Q8TDD5 1-553): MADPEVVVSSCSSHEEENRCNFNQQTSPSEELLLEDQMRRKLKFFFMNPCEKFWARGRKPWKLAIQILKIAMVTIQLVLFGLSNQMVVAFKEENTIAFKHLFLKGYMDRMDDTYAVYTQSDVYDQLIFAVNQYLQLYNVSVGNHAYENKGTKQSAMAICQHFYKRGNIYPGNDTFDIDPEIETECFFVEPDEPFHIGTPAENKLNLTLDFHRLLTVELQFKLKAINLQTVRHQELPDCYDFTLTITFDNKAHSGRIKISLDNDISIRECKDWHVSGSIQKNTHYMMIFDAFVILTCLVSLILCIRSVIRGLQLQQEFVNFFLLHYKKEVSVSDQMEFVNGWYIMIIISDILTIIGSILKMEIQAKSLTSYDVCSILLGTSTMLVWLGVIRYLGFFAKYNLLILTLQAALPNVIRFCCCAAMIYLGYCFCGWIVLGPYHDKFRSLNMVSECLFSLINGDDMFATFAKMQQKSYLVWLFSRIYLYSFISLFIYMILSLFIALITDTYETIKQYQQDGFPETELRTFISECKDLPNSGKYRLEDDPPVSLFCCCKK
Method: as §5, §4

[2] = system: HeLa cells with the NPC1 gene knocked out; assay: Total hexosylceramides in HeLa cells with NPC1 gene knocked out; format: cell-based; conditions: NPC1 knockout HeLa, FIG. 1
Method: (§6) HeLa cells with the NPC1 gene knocked out via CRISPR-generated frameshifting indels were grown in standard cell culture conditions (DMEM high glucose with 10% FBS and penicillin/streptomycin). Cells were treated with the indicated concentrations of TRPML1 activators for 48 hours; media and compound were refreshed every 24 hours (FIG. 1). Two replicates per treatment were used. Cells were pelleted in PBS, frozen, and shipped to the Medical University of South Carolina (MUSC) for lipid quantitation by mass spectrometry. Lipid quantities were normalized to total inorganic phosphate in the cell sample as assessed by mass spectrometry. […] Statistical significance versus DMSO (p values indicated above) unpaired t-test.

[3] = system: mIMCD-3 cells with the PKD1 gene knocked out; assay: Forskolin-induced cyst swelling, in vitro model of Polycystic Kidney Disease; format: cell-based, murine; conditions: 5 uM forskolin, 72 hours of compound treatment; DMSO 100%+/−7.1
Method: Shown in FIG. 3 are results from an experiment where mIMCD-3 cells with the PKD1 gene knocked out via CRISPR-generated frameshifting indels were seeded into 384 well plates containing Matrigel and cultured in standard growth media for 4 days until they formed spherical organoid cysts as described in Reference 1 (Booij et al., SLAS Discov. 2017 September; 22(8):974-984). TRPML1 activators and vehicle were added to the cells at the indicated concentrations, in combination with 5 uM forskolin to induce cyst swelling. Four replicates per treatment were used. Approximately half of the media in each well was replaced with fresh media containing compounds and forskolin every 24 hours. After 72 hours of compound treatment, the cysts were fixed and stained for nuclei (DAPI) and actin (fluorescent-conjugated phalloidin). The ability of the TRPML1 activators to inhibit forskolin-induced cyst swelling was assessed using the 2-dimensional cross-sectional area of each cyst as measured using a high content microscope with a 4× objective, and analyzed using proprietary Ominer software. Cyst areas were averaged within each well and normalized to the vehicle control (DMSO).

[4] = system: HeLa cells with the NPC2 gene knocked out; assay: Total hexosylceramides in HeLa cells with NPC2 gene knocked out; format: cell-based; conditions: NPC2 knockout HeLa
Method: as §6
Shown in FIG. 2 are results from the same experiment described in FIG. 1, but using HeLa cells with the NPC2 gene knocked out via CRISPR.

TRPML1 = TRPML1 (Homo sapiens, UniProt Q9GZU1, L15A/L16A); assay: GCaMP surface assay; format: cell-based
TRPML1, sequence (Q9GZU1 with tags, fused parts or gaps L15A/L16A): as the sequence (Q9GZU1 whole entry L15A/L16A/L577A/L578A, form open) above

TRPMLs = conditions: literature report; cited from earlier work
hTRPML1 [5] = molecular target: T1, hTRPML1; assay: TRPML1 fluorescent (Fluo-4) assay; format: cell-based; design: fused on or other part: Possibly a GCaMP calcium sensor fused on, for the parenthetic 'GCaMP surface assay' value
Method: as §1, with “38×10^6 cells are re-plated into 150 mm round tissue culture dishes in media containing 0.5 ug/mL doxycycline to induce expression of hTRPML1.” left out
as §2, §3, §4

[6] = activation, read-out: Secondary Screening: Fluo-4: hTRPML2: EC50
[7] = activation, read-out: Secondary Screening: Fluo-4: hTRPML3: EC50

Row | Structure (SMILES) | EC50 (hTRPML1 [1]) [nM] | EC50 (hTRPML2; [6]) [nM] | EC50 (hTRPML3; [7]) [nM] | cyst area normalized to the vehicle control (DMSO) [3] | further results
1 | CN(c1ccccc1NS(=O)(=O)c1ccc(S(C)(=O)=O)cc1)C1CCN(c2ccc(Cl)cc2F)C1 (stereo not drawn) [Compound 113, N-(2-((1-(4-Chloro-2-fluorophenyl)pyrrolidin-3-yl)(methyl)amino)phenyl)-4-(methylsulfonyl)benzene-sulfonamide] | 300 to 1000 | > 5000 | 1000 to 5000 | – | –
2 | CN(c1ccccc1NS(=O)(=O)c1ccc(S(=O)(=O)N(C)C)cc1)C1CCN(C(=O)Oc2ccccc2)C1 (stereo not drawn) [Compound 123, Phenyl 3-((2-((4-(N,N-dimethylsulfamoyl)phenyl)sulfonamido)phenyl)(methyl)amino)pyrrolidine-1-carboxylate] | 1000 to 5000 | 1000 to 5000 | 300 to 1000 | – | –
3 | CN(c1ccccc1NS(=O)(=O)c1ccc(S(=O)(=O)N(C)C)cc1)C1CCN(C(=O)OC2CCCCC2)C1 (stereo not drawn) [Compound 124, cyclohexyl 3-((2-((4-(N,N-dimethylsulfamoyl)phenyl)sulfonamido)phenyl)(methyl)amino)pyrrolidine-1-carboxylate] | 300 to 1000 | 1000 to 5000 | 300 to 1000 | – | –
4 | CN(c1ccccc1NS(=O)(=O)c1ccc(S(=O)(=O)N(C)C)cc1)C1CCN(c2ccc(Cl)cc2F)C1 (stereo not drawn) [Compound 101, N^1-(2-((1-(4-chloro-2-fluorophenyl)pyrrolidin-3-yl)(methyl)amino)phenyl)-N^4,N^4-dimethylbenzene-1,4-disulfonamide] | 300 to 1000 | < 300 | < 300 | 51.2%+/−1.6 | total hexosylCeramides compared with DMSO vehicle (in words) [2]: reduced; total HexosylCeramides ([4]; 48 hours treatment, DMSO 6.45+/−0.28): 3.48+/−0.20 HexCer/nmol Pi/sample; total hexosylCeramides compared with DMSO vehicle (in words) ([4]; FIG. 2): reduced
5 | CN(C1CCN(c2ccccc2F)C1)[C@H]1CCCC[C@@H]1NS(=O)(=O)c1ccc(S(=O)(=O)N(C)C)cc1 (relative stereo) [Compound 121, trans-N^1-(2-((1-(2-fluorophenyl)pyrrolidin-3-yl)(methyl)amino)-cyclohexyl)-N^4,N^4-dimethylbenzene-1,4-disulfonamide] | 1000 to 5000 | 1000 to 5000 | 300 to 1000 | – | –
6 | CN(C)S(=O)(=O)c1ccc(S(=O)(=O)Nc2ccccc2N2CCN(c3ccc(Cl)cc3F)CC2)cc1 [Compound 125] | – | – | – | 69.6%+/−4.4 | EC50 (TRPML1): 453 nM
7 | CN(C)S(=O)(=O)c1ccc(S(=O)(=O)N[C@@H]2CCCCC[C@H]2N2CCN(c3ccc(Cl)cc3F)CC2)cc1 (relative stereo) [Compound 120, trans-N^1-(2-(4-(4-chloro-2-fluorophenyl)piperazin-1-yl)cycloheptyl)-N^4,N^4 dimethylbenzene-1,4-disulfonamide] | < 300 | 1000 to 5000 | 300 to 1000 | – | –
8 | Cc1ccc(S(=O)(=O)Nc2ccccc2N2CCCCC2)s1 [Compound 127, reference compound] | – | – | – | 79.6%+/−3.8 | EC50 (TRPML1): 2640 nM
9 | CC1CC(C)(C)N(C(=O)CN2C(=O)c3ccccc3C2=O)c2ccccc21 (stereo not drawn) [Compound 126, reference compound] | – | – | – | 72.3%+/−2.5 | concentration needed to effectively activate TRPMLs (TRPMLs): ~10 µM; TRPML1 activation EC50 (Table 2, class) (hTRPML1 [5]; Table 2 key): B/C/D; EC50 (hTRPML1 [5]; read-out: TRPML1 activation EC50 (Table 2, number)): 3520 nM; TRPML2 activation EC50 (Table 2, class) (hTRPML2; Table 2 key): B/C/D; EC50 (hTRPML2; read-out: TRPML2 activation EC50 (Table 2, number)): 5410 nM; EC50 (hTRPML3; read-out: TRPML3 activation EC50 (Table 2, number)): 1580 nM
